Reference: article PMC6130513, “In vitro inhibitory effects of Friedelin on human liver cytochrome P450 enzymes” (Pharmaceutical Biology, 2018)

Legend:
CYP2C9 = biological target: T1, CYP2C9 (Homo sapiens, UniProt P11712); test: CYP2C9 inhibition in pooled human liver microsomes (diclofenac 4'-hydroxylation); assay type: in vitro ADME; conditions: Friedelin 100 μM, pooled HLMs
T1 construct: from tissue; host or cells: human liver microsomes
Protocol: (§1) All incubations were performed in triplicate, and the mean values were utilized. The typical incubation systems contained 100 mM potassium phosphate buffer (pH 7.4), NADPH generating system (1 mM NADP^+, 10 mM glucose-6-phosphate, 1 U/mL of glucose-6-phosphate dehydrogenase, and 4 mM MgCl2), the appropriate concentration of HLMs, a corresponding probe substrate and Friedelin (or positive inhibitor for different probe reactions) in a final volume of 200 μL.
(§2) The concentration of Friedelin was 100 μM, and the positive inhibitor concentrations were as follows: 1 μM ketoconazole for CYP3A4, 10 μM furafylline for CYP1A2, 10 μM tranylcypromine for CYP2A6, 50 μM clomethiazole for CYP2E1, 10 μM quinidine for CYP2D6, 10 μM sulfaphenazole for CYP2C9, 50 μM tranylcypromine for CYP2C19, 5 μM montelukast for CYP2C8. Probe substrates, positive inhibitors (except for dextromethorphan and quinidine which were dissolved in water) and Friedelin were dissolved in methanol, with a final concentration of 1% (v/v) and 1% neat methanol was added to the incubations without inhibitor. […] The instrument used in this study were Agilent 1260 series instrument with DAD and FLD detector, and the quantitative assay for the corresponding metabolites was performed as previously reported (Lang et al. [2016]; Zhang et al. [2017]). […]

CYP3A4 [1] = biological target: T2, CYP3A4 (Homo sapiens, UniProt P08684); test: CYP3A4 inhibition in pooled human liver microsomes (testosterone 6β-hydroxylation); assay type: in vitro ADME; conditions: pooled HLMs
T2 construct: effects of Friedelin on CYP3A4 catalyzed reactions (testosterone 6β-hydroxylation) in pooled HLM; from tissue; host or cells: pooled human liver microsomes
Protocol: as §1
(§3) The concentration of Friedelin was 100 μM, and the positive inhibitor concentrations were as follows: 1 μM ketoconazole for CYP3A4, 10 μM furafylline for CYP1A2, 10 μM tranylcypromine for CYP2A6, 50 μM clomethiazole for CYP2E1, 10 μM quinidine for CYP2D6, 10 μM sulfaphenazole for CYP2C9, 50 μM tranylcypromine for CYP2C19, 5 μM montelukast for CYP2C8. Probe substrates, positive inhibitors (except for dextromethorphan and quinidine which were dissolved in water) and Friedelin were dissolved in methanol, with a final concentration of 1% (v/v) and 1% neat methanol was added to the incubations without inhibitor. There was a 3 min preincubation period (at 37 °C) before the reaction was initiated by adding an NADPH-generating system. The reaction was terminated by adding a 100 μL acetonitrile (10% trichloroacetic acid for CYP2A6) internal standard mix, and the solution was placed on ice. The mixture was centrifuged at 12,000 rpm for 10 min, and an aliquot (50 μL) of the supernatant was transferred for HPLC analysis. The instrument used in this study were Agilent 1260 series instrument with DAD and FLD detector, and the quantitative assay for the corresponding metabolites was performed as previously reported (Lang et al. [2016]; Zhang et al. [2017]).
(§4) Friedelin (100 μM) was used to initially screen for its direct inhibitory effects toward different human CYP isoforms. […] Ki values were obtained by incubating various concentrations of different probe substrates (20–100 μM testosterone, 25–200 μM chlorzoxazone) in the presence of 0–50 μM Friedelin.
(§5) The enzyme kinetic parameters for the probe reaction were estimated from the best fit line using least-squares linear regression of the inverse substrate concentration versus the inverse velocity (Lineweaver–Burk plots), and the mean values were used to calculate Vmax and Km. Inhibition data from the experiments that were conducted using multiple compound concentrations were represented by Dixon plots, and inhibition constant (Ki) values were calculated using nonlinear regression according to the following equation: v=(VmaxS)/(Km(1+I/Ki)+S), where I is the concentration of the compound, Ki is the inhibition constant, S is the concentration of the substrate, and Km is the substrate concentration at half the maximum velocity (Vmax) of the reaction. […]

CYP2C19 = biological target: T3, CYP2C19 (Homo sapiens, UniProt P33261); test: CYP2C19 inhibition in pooled human liver microsomes (S-mephenytoin 4-hydroxylation); assay type: in vitro ADME; conditions: Friedelin 100 μM, pooled HLMs
T3 construct: from tissue; host or cells: human liver microsomes
Protocol: as §1, §2

CYP2A6 = biological target: T4, CYP2A6 (Homo sapiens, UniProt P11509); test: CYP2A6 inhibition in pooled human liver microsomes (coumarin 7-hydroxylation); assay type: in vitro ADME; conditions: Friedelin 100 μM, pooled HLMs
T4 construct: from tissue; host or cells: human liver microsomes
T4 sequence (P11509 1-494): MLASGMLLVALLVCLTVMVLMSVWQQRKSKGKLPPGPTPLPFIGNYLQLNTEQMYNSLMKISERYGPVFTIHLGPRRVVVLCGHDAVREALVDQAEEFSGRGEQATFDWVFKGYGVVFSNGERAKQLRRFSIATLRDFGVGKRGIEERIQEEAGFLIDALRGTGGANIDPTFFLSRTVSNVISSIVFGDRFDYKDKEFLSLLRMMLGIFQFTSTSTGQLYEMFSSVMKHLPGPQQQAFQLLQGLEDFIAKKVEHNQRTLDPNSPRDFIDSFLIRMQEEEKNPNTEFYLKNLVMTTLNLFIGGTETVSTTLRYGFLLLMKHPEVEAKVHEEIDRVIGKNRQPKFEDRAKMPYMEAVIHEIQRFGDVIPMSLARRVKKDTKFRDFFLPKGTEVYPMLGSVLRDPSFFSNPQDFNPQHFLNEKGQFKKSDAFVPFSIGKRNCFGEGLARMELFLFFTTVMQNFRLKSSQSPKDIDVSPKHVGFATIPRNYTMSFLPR
Protocol: as §1, §2

CYP1A2 = biological target: T5, CYP1A2 (Homo sapiens, UniProt P05177); test: CYP1A2 inhibition in pooled human liver microsomes (phenacetin O-demethylation); assay type: in vitro ADME; conditions: Friedelin 100 μM, pooled HLMs
T5 construct: from tissue; host or cells: human liver microsomes
T5 sequence (P05177 1-516): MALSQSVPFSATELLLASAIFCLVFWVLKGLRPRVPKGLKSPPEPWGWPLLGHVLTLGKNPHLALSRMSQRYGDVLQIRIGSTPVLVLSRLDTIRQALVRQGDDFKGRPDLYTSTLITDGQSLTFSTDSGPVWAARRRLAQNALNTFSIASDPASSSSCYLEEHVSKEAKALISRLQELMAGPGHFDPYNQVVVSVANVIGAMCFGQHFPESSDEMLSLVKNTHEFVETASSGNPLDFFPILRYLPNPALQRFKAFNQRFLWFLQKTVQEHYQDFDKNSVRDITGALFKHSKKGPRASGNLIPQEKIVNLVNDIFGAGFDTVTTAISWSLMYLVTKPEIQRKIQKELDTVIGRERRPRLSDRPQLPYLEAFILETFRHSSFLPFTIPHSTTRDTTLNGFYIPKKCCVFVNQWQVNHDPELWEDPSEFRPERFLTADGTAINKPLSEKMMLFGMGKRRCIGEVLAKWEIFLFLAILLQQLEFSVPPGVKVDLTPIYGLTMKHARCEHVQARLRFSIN
Protocol: as §1, §2

CYP3A4 [2] = biological target: T2, CYP3A4; test: Time-dependent inhibition study of CYP3A4 in human liver microsomes; assay type: in vitro ADME
Protocol: (§6) To determine whether Friedelin could inhibit the activity of CYP3A4 and 2E1 in a time-dependent manner, Friedelin (20 μM) was preincubated with HLMs (1 mg/mL) in the presence of an NADPH-generating system for 30 min at 37 °C. After incubation, an aliquot (20 μL) was transferred to another incubation tube (final volume 200 μL) containing an NADPH-generating system and probe substrates whose final concentrations were approximate to Km. Then, further incubations were performed to measure the residual activity. After being incubated for different time (0–30 min), the reactions were terminated by adding a 100 μL acetonitrile internal standard mix and then placed on ice; the corresponding metabolites were determined by HPLC. To determine the Ki and kinact values for the inactivation of CYP3A4, the incubations were conducted using higher probe substrate concentrations (approximately 4-fold Km values) and various concentrations of Friedelin (0–50 μM) after different preincubation times (0–30 min), with a two-step incubation scheme, as described above.

CYP2E1 [3] = biological target: T6, CYP2E1 (Homo sapiens, UniProt P05181); test: Time-dependent inhibition study of CYP2E1 in human liver microsomes; assay type: in vitro ADME; conditions: Friedelin 20 μM, 30 min preincubation with HLM and NADPH
T6 construct: effects of Friedelin on CYP2E1 catalyzed reactions (chlorzoxazone 6-hydroxylation) in pooled HLM; from tissue; host or cells: pooled human liver microsomes
Protocol: as §6, with “HPLC.” for “HPLC. To determine the Ki and kinact values for the inactivation of CYP3A4, the incubations were conducted using higher probe substrate concentrations (approximately 4-fold Km values) and various concentrations of Friedelin (0–50 μM) after different preincubation times (0–30 min), with a two-step incubation scheme, as described above.”

P-glycoprotein (P-gp) = test system: P-glycoprotein (P-gp); parameters: method as in Lee et al. [2017]; conditions: ref Lee et al. [2017]; cited from earlier work
CYP2D6 = biological target: T7, CYP2D6 (Homo sapiens, UniProt P10635); test: CYP2D6 inhibition in pooled human liver microsomes (dextromethorphan O-demethylation); assay type: in vitro ADME; conditions: Friedelin 100 μM, pooled HLMs
T7 construct: from tissue; host or cells: human liver microsomes
Protocol: as §1, §2

CYP2C8 = biological target: T8, CYP2C8 (Homo sapiens, UniProt P10632); test: CYP2C8 inhibition in pooled human liver microsomes (paclitaxel 6α-hydroxylation); assay type: in vitro ADME; conditions: Friedelin 100 μM, pooled HLMs
T8 construct: from tissue; host or cells: human liver microsomes
T8 sequence (P10632 1-490): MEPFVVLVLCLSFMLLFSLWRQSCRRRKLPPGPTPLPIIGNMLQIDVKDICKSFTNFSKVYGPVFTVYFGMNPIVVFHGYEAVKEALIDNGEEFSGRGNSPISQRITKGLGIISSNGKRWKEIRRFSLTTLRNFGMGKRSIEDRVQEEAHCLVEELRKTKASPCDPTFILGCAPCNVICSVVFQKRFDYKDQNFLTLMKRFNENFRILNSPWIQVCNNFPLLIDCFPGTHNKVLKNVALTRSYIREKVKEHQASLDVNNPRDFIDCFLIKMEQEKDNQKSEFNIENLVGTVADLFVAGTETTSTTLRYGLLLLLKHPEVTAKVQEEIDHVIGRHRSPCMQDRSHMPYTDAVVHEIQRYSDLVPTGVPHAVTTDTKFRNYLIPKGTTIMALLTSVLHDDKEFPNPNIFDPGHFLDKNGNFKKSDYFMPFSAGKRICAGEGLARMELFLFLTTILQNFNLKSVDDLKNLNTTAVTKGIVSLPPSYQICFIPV
Protocol: as §1, §2

CYP2E1 [4] = biological target: T6, CYP2E1; test: CYP2E1 inhibition in pooled human liver microsomes (chlorzoxazone 6-hydroxylation); assay type: in vitro ADME; conditions: pooled HLMs
Protocol: as §1, §3, §4, §5

T6 sequence (P05181 whole entry): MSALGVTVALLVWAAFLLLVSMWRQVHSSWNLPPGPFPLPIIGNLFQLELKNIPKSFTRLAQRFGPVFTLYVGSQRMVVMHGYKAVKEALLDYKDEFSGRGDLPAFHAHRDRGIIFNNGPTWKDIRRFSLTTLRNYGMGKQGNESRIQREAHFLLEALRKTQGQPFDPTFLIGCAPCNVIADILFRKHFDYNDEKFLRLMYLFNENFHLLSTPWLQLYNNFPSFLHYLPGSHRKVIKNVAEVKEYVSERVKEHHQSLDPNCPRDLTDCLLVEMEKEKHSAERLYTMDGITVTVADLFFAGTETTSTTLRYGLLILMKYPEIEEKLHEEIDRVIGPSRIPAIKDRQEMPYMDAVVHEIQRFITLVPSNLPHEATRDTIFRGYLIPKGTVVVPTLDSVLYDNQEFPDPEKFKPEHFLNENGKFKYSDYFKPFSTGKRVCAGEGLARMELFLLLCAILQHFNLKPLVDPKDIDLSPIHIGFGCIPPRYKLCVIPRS
T2 sequence (P08684 whole entry): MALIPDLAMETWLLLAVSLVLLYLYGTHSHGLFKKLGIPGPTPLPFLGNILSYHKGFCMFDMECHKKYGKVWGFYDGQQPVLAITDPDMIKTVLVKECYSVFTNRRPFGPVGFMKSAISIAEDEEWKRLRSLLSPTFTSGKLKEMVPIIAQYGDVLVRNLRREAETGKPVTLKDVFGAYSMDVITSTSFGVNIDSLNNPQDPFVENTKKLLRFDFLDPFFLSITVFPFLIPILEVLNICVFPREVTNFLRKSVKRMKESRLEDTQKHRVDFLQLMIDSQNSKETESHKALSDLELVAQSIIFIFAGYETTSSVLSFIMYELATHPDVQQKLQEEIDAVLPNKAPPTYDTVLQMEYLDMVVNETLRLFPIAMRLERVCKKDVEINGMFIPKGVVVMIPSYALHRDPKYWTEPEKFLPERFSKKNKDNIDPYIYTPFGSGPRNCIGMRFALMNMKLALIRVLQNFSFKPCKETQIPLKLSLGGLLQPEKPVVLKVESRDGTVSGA
T7 sequence (P10635 whole entry): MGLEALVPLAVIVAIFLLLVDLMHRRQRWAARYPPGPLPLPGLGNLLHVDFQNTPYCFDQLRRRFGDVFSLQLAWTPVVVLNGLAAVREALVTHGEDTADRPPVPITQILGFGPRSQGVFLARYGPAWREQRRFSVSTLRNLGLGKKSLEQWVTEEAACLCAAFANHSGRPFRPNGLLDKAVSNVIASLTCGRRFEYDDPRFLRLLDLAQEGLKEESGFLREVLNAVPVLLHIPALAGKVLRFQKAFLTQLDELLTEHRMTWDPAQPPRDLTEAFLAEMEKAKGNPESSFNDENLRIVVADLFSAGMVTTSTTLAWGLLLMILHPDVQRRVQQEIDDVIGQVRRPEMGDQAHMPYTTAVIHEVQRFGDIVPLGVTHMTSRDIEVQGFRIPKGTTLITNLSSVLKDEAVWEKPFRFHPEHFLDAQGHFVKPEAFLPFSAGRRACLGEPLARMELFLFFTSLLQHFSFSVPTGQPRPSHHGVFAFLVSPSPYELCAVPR
T1 sequence (P11712 whole entry): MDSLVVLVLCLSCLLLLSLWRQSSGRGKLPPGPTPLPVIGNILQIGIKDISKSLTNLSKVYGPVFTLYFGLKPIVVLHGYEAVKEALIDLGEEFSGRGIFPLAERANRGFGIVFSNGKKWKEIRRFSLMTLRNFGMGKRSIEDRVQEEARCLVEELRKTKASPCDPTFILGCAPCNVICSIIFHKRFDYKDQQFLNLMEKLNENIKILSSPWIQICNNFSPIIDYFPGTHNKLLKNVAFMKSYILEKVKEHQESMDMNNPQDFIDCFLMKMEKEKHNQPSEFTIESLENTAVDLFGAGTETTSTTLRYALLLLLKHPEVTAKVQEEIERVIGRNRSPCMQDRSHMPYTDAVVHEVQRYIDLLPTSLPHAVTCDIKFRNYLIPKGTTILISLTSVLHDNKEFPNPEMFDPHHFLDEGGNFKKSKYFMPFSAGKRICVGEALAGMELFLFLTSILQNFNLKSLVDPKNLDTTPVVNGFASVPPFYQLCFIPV
T3 sequence (P33261 whole entry): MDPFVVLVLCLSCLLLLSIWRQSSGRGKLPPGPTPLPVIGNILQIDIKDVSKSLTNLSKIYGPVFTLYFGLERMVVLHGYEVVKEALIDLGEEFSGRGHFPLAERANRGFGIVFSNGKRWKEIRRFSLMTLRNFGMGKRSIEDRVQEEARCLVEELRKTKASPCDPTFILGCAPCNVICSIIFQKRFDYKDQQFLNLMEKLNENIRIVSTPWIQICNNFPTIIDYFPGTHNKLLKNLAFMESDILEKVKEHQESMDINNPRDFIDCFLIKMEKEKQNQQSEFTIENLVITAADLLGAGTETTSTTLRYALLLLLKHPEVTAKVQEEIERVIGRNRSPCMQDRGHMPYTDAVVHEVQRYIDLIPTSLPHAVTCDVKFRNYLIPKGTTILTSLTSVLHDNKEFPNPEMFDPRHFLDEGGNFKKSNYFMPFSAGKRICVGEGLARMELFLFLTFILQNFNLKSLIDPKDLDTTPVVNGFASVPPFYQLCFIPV

Q: What does the source list for C[C@H]1C(=O)CC[C@@H]2[C@]1(C)CC[C@H]1[C@@]2(C)CC[C@@]2(C)[C@@H]3CC(C)(C)CC[C@]3(C)CC[C@]12C [Friedelin]?
A: Inhibition of CYP2C9 activity (CYP2C9): could not inhibit; Mode of inhibition of CYP3A4 (CYP3A4 [1]; Lineweaver–Burk plots): noncompetitive; activity at 100 μM (CYP3A4 [1]; human, pooled human liver microsomes, pH 7.4, probe testosterone (6β-hydroxylation), Friedelin 100 μM, testosterone 6β-hydroxylation, read-out: CYP3A4 activity, % of control activity): 7.5%; Ki (CYP3A4 [1]; secondary Lineweaver–Burk plot, testosterone 20–100 μM): 6.16 µM; IC50 (CYP3A4 [1]; testosterone 6β-hydroxylation): 10.8 µM; Inhibition of CYP2C19 activity (CYP2C19): could not inhibit; Inhibition of CYP2A6 activity (CYP2A6): could not inhibit; Inhibition of CYP1A2 activity (CYP1A2): could not inhibit; Time-dependent inhibition of CYP3A4 activity (CYP3A4 [2]; Friedelin 20 μM, 30 min preincubation with HLM and NADPH): decreased with the incubation time; kinact/KI (CYP3A4 [2]; human, human liver microsomes, HLM, Friedelin 0–50 μM, preincubation 0–30 min with NADPH, read-out: Kinact/Ki for CYP3A4 inactivation (converted)): 80.7 M⁻¹ s⁻¹; CYP3A4 inactivated each minute (Kinact) (CYP3A4 [2]; saturating concentration of Friedelin incubated with HLM): approximately 5.9%; Time-dependent inhibition of CYP2E1 activity (CYP2E1 [3]): not affected; Effect on ATPase activity of P-glycoprotein (P-glycoprotein (P-gp)): could suppress ATPase activity; Inhibition of CYP2D6 activity (CYP2D6): could not inhibit; Inhibition of CYP2C8 activity (CYP2C8): could not inhibit; Mode of inhibition of CYP2E1 (CYP2E1 [4]; Lineweaver–Burk plots): competitive; activity at 100 μM (CYP2E1 [4]; human, pooled human liver microsomes, pH 7.4, probe chlorzoxazone (6-hydroxylation), Friedelin 100 μM, chlorzoxazone 6-hydroxylation, read-out: CYP2E1 activity, % of control activity): 18.9%; IC50 (CYP2E1 [4]; chlorzoxazone 6-hydroxylation): 22.5 µM; Ki (CYP2E1 [4]; secondary Lineweaver–Burk plot, chlorzoxazone 25–200 μM): 18 µM
